Assay results published in patent US11752120B2, “Use of succinic acid in increasing sensitivity of bacteria to antibiotics” (SUN YAT-SEN UNIVERSITY, priority 2018, dated 2023).
Like-named read-outs stand apart in the source and are kept apart here.

How the values were obtained:
[1] = test system: clinical Escherichia coli YT16 and YT28; settings: 6 hours (FIG. 9)
Experimental: The cultured bacteria were washed and resuspended in normal saline, OD600 value was adjusted to 1.0, and 1 mL of bacterial cells were taken for ultrasonication, and after centrifugation, the supernatant was taken to determine the antibiotic content. The ampicillin ELISA rapid diagnostic kit (purchased from Shenzhen Lvshiyuan Biotechnology Co., Ltd., with a detection range of 2 to 1000 g/mL) was used for detection and the specific steps are as follows: 50 μL of sample (or standard) and 50 μL of antibody were added into a 96-well plate, mixed gently, and incubated at 25° C. for 30 minutes, and the plate was washed 4 to 5 times; 100 μL of enzyme standard was added, mixed gently, and incubated away from light at 25° C. for 30 minutes, and the plate was washed 4 to 5 times; 50 μL of substrates A and B was added respectively, mixed gently, and incubated away from light at 25° C. for 15 minutes; and finally, a stop solution was added to stop the reaction, and an enzyme-labeled instrument was set to measure the absorbance of the reaction product at 450 nm. A standard curve was drawn, with the percent absorbance of the standard as an ordinate and semi-log of the concentration of the ampicillin standard (ng/mL) as the abscissa. AMP actual concentration=sample detection concentration xdilution multiple.

[2] = test system: clinical Escherichia coli YT16 and YT28; test: Viable bacteria count / survival rate after antibiotic with or without succinic acid in M9 medium; assay type: cell-based
Experimental: A single colony of clinical bacteria was picked from a solid LB plate and was inoculated in 5 mL LB liquid medium for culture at 37° C. and 200 rpm for 16 hours, and then was inoculated in 100 mL LB liquid medium at a ratio of 1:100 (v/v) and was cultured at 37° C. until OD600 value was 1.0. 20 mL of bacterial solution was collected and centrifuged at 8000 rpm for 5 minutes, the supernatant was cleared and bacterial cells were washed with an equal volume of 0.85% normal saline, and finally the bacterial cells were suspended with 1×M9 basic medium (containing 10 mM acetate), the OD value of the bacterial solution was adjusted to 0.5, and then 5 mL of the bacterial solution was aliquoted in a test tube for the following experimental studies.
The survival rates of the clinical bacteria in medium with adding succinic acid and without adding succinic acid at the same antibiotic concentration were compared.
The formula is the number of viable bacteria when different concentrations of succinic acid were added/the number of viable bacteria without adding succinic acid×100%.
In order to study whether clinical Escherichia coli has effect on penicillin antibiotics after adding succinic acid, two clinical Escherichia coli samples of YT16 and YT28 were prepared according to step 2 in Embodiment 1, 20 mM succinic acid and 3 kinds of penicillin were added respectively, […], the number of viable bacteria was counted, and the survival rate was calculated. […]

[3] = test system: clinical Escherichia coli YT16 and YT28; settings: 6 hours (FIG. 10)
Experimental: A concentration of the treated bacteria was adjusted to 106 CFU/mL, 1 mL of the treated bacteria was taken and transferred into a 1.5 mL EP tube, 10 μL of 3 mM DiOC2 (3,3′-diethyloxa-carbocyanine iodide) was added, and oscillation and incubation were performed for 30 minutes after mixing sufficiently. The bacteria were transferred to a flow cytometry analysis tube before use on the machine, a FACSCalibur flow cytometer (Becton Dickinson, San Jose, Calif., USA) was used for detection, and parameter settings were performed according to the instrument operating procedures. The dye DiOC2 (3) has a green fluorescence excitation wavelength of 488 nm, an emission wavelength of 530 nm, a red fluorescence excitation wavelength of 488 nm, and an emission wavelength of 610 nm. The ratio of the red light intensity to the green light intensity indicates the intensity of the membrane potential, and calculation formula of the proton motive force (PMF) value is LOG (10^3/2*Y mean/X mean). Y mean and X mean represent red light intensity and green light intensity, respectively. Determination was performed according the instructions of the BacLight bacterial membrane potential kit (Invitrogen) kit.

[4] = test system: clinical Escherichia coli biofilm; test: In vitro bactericidal assay of biofilm; assay type: cell-based; settings: catheter biofilm, 6 hours; succinic acid 580 mg/kg; ampicillin 2000 mg/kg for YT16, 500 mg/kg for YT28
Experimental: (§1) […] of clinical Escherichia coli (YT3, YT11, YT12, YT16, YT17, YT21, YT22, YT23, YT28, YT33) were picked, monocloned into LB medium, and cultured overnight, then were transferred into 2 mL fresh LB medium at 1:200, and added with a 6 mm PE-50 biological catheter that was sterilized by UV, and cultured in a 37° C. incubator for culture for 24 hours. The bacterial solution was replaced with 1 mL of LB medium daily, and the catheter was continuously cultured for 3 days. The prepared biofilm was washed 5 times with 1 mL of sterile normal saline, and then placed in a 1.5 mL EP tube.
The assay was divided into 4 groups: normal saline control group, succinic acid group, ampicillin group, ampicillin+succinic acid group, and the catheters were treated in a shaker at 37° C. and 200 rpm. A dosage of succinic acid was 580 mg/kg, and a dosage of ampicillin was 2000 mg/kg for YT16, and 500 mg/kg for YT28. After 6 hours, ultrasonic cleaning was conducted for 15 minutes, the biofilm on the catheter was eluted and thoroughly mixed, and after gradient dilution, spot plate counting was performed. The formula for calculating the bacterial survival rate is: number of viable bacteria in each group/number of viable bacteria in the control group×100%.

[5] = test system: clinical Escherichia coli biofilm; settings: mice
Experimental: as §1
Further, mice were used as test animals, and the prepared clinical Escherichia coli biofilm was implanted into the mouse urethra to construct a mouse chronic urinary tract infection model for conducting an in vivo clinical Escherichia coli clearance test was performed: a 6-mm PE-50 biological catheter of a clinical Escherichia coli biofilm formed by culture for 3 days was implanted into the urethra of a 5-week-old Kunming female mouse (about 20 g). After 48 hours, mice were divided into 2 groups of 5 mice each, which were the ampicillin group and the ampicillin+succinic acid group. […] 24 hours after the last injection, the catheter tube was taken into normal saline to suspend the biofilm bacteria in the ultrasound, and gradient dilution and plate counting were performed to calculate the bacterial survival rate on the catheter biofilm. The calculation formula is the number of viable bacteria in the injection substance group/number of viable bacteria in the control group×100%.

[6] = YT16, 10 mg/mL ampicillin + 1.25 mM succinic acid, 4 hours (FIG. 3)
[7] = YT16, 10 mg/mL ampicillin + 20 mM succinic acid, 4 hours (FIG. 3)
[8] = YT28, 10 mg/mL ampicillin + 1.25 mM succinic acid, 4 hours (FIG. 3)
[9] = YT28, 10 mg/mL ampicillin + 20 mM succinic acid, 4 hours (FIG. 3)

## O=C(O)CCC(=O)O [succinic acid]
[1]; YT16, ampicillin and succinic acid vs only ampicillin
  increase of the number of antibiotics (ampicillin) in the bacteria: 5.97 times
[1]; YT28, ampicillin and succinic acid vs only ampicillin
  increase of the number of antibiotics (ampicillin) in the bacteria: 7.99 times
[2]; YT16, 2.5 mg/mL ampicillin after adding 20 mM succinic acid, 4 hours
  survival rate: 30.06%
[2]; YT16, 5 mg/mL ampicillin after adding 20 mM succinic acid, 4 hours
  survival rate: 2.06%
[2]; [6]
  bacterial survival rate: 69.23%
  bactericidal efficiency: 1.07 times
[2]; [7]
  bacterial survival rate: 1.19%
  bactericidal efficiency: 61 times
[2]; YT16, 10 mg/mL ampicillin after adding 20 mM succinic acid, 4 hours (FIG. 1)
  survival rate: 0.41%
[2]; YT16, 10 mg/mL ampicillin and 20 mM succinic acid, 1 hour (FIG. 2)
  survival rate: 71.54%
[2]; YT16, 10 mg/mL ampicillin and 20 mM succinic acid, 4 hours (FIG. 2)
  survival rate: 0.78%
[2]; YT16, 10 mg/mL ampicillin and 20 mM succinic acid, 7 hours (FIG. 2)
  survival rate: 0.01%
[2]; YT16, 20 mM succinic acid + 0.5 mg/mL penicillin G sodium salt, 4 hours
  increase of sensitivity to penicillin G sodium salt: 4.96 times
[2]; YT16, 20 mM succinic acid + 0.75 mg/mL penicillin G sodium salt, 4 hours
  increase of sensitivity to penicillin G sodium salt: 5.13 times
[2]; YT16, 20 mM succinic acid + 1.25 mg/mL carbenicillin, 4 hours
  increase of sensitivity to carbenicillin: 1.99 times
[2]; YT16, 20 mM succinic acid + 2.5 mg/mL carbenicillin, 4 hours
  increase of sensitivity to carbenicillin: 11.65 times
[2]; YT16, 20 mM succinic acid + 5 mg/mL amoxicillin, 4 hours
  increase of sensitivity to amoxicillin: 15.86 times
[2]; YT16, 20 mM succinic acid + 7.5 mg/mL amoxicillin, 4 hours
  increase of sensitivity to amoxicillin: 3.37 times
[2]; YT16, 20 mM succinic acid + 10 mg/mL ampicillin vs ampicillin only, at 1 hour (FIG. 2)
  bactericidal efficiency: 1.33 time
[2]; YT16, 20 mM succinic acid + 10 mg/mL ampicillin vs ampicillin only, at 4 hours (FIG. 2)
  bactericidal efficiency: 60.66 times
[2]; YT16, 20 mM succinic acid + 10 mg/mL ampicillin vs ampicillin only, at 7 hours (FIG. 2)
  bactericidal efficiency: 1744.19 times
[2]; YT16, 20 mM succinic acid added to 2.5 mg/mL ampicillin, 4 hours, vs ampicillin alone
  bactericidal efficiency increase: more than 2 times
[2]; YT16, 20 mM succinic acid added to 5 mg/mL ampicillin, 4 hours, vs ampicillin alone
  bactericidal efficiency increase: 16.75 times
[2]; YT16, 20 mM succinic acid added to 10 mg/mL ampicillin, 4 hours, vs ampicillin alone (FIG. 1)
  bactericidal efficiency increase: 62.25 times
[2]; YT16, 20 mM succinic acid added to 20 mg/mL ampicillin, 4 hours, vs ampicillin alone
  bactericidal efficiency increase: 105.96 times
[2]; YT16, 20 mM succinic acid with gentamicin, ciprofloxacin, tetracycline, erythromycin, clindamycin or rifampin, 4 hours (FIG. 6)
  enhancement of sensitivity to different kinds of antibiotics: about 2 times
[2]; YT16, 20 mg/mL ampicillin after adding 20 mM succinic acid, 4 hours
  survival rate: 0.12%
[2]; YT28, 2.5 mg/mL ampicillin after adding 20 mM succinic acid, 4 hours
  survival rate: 41.62%
[2]; YT28, 5 mg/mL ampicillin after adding 20 mM succinic acid, 4 hours
  survival rate: 12.71%
[2]; [8]
  bacterial survival rate: 80.31%
  bactericidal efficiency: 1.07 times
[2]; [9]
  bacterial survival rate: 4.24%
  bactericidal efficiency: 20 times
[2]; YT28, 10 mg/mL ampicillin after adding 20 mM succinic acid, 4 hours (FIG. 1)
  survival rate: 1.7%
[2]; YT28, 10 mg/mL ampicillin and 20 mM succinic acid, 1 hour (FIG. 2)
  survival rate: 66.81%
[2]; YT28, 10 mg/mL ampicillin and 20 mM succinic acid, 4 hours (FIG. 2)
  survival rate: 1.25%
[2]; YT28, 10 mg/mL ampicillin and 20 mM succinic acid, 7 hours (FIG. 2)
  survival rate: 0.18%
[2]; YT28, 20 mM succinic acid + 0.5 mg/mL penicillin G sodium salt, 4 hours
  increase of sensitivity to penicillin G sodium salt: 2.66 times
[2]; YT28, 20 mM succinic acid + 0.75 mg/mL penicillin G sodium salt, 4 hours
  increase of sensitivity to penicillin G sodium salt: 9.34 times
[2]; YT28, 20 mM succinic acid + 1.25 mg/mL carbenicillin, 4 hours
  increase of sensitivity to carbenicillin: 1.8 times
[2]; YT28, 20 mM succinic acid + 2.5 mg/mL carbenicillin, 4 hours
  increase of sensitivity to carbenicillin: 15.85 times
[2]; YT28, 20 mM succinic acid + 5 mg/mL amoxicillin, 4 hours
  increase of sensitivity to amoxicillin: 13.94 times
[2]; YT28, 20 mM succinic acid + 7.5 mg/mL amoxicillin, 4 hours
  increase of sensitivity to amoxicillin: 31.85 times
[2]; YT28, 20 mM succinic acid + 10 mg/mL ampicillin vs ampicillin only, at 1 hour (FIG. 2)
  bactericidal efficiency: 1.44 time
[2]; YT28, 20 mM succinic acid + 10 mg/mL ampicillin vs ampicillin only, at 4 hours (FIG. 2)
  bactericidal efficiency: 21.45 times
[2]; YT28, 20 mM succinic acid + 10 mg/mL ampicillin vs ampicillin only, at 7 hours (FIG. 2)
  bactericidal efficiency: 78.34 times
[2]; YT28, 20 mM succinic acid added to 2.5 mg/mL ampicillin, 4 hours, vs ampicillin alone
  bactericidal efficiency increase: more than 1.65 times
[2]; YT28, 20 mM succinic acid added to 5 mg/mL ampicillin, 4 hours, vs ampicillin alone
  bactericidal efficiency increase: 4.42 times
[2]; YT28, 20 mM succinic acid added to 10 mg/mL ampicillin, 4 hours, vs ampicillin alone (FIG. 1)
  bactericidal efficiency increase: 21.06 times
[2]; YT28, 20 mM succinic acid added to 20 mg/mL ampicillin, 4 hours, vs ampicillin alone
  bactericidal efficiency increase: 34.48 times
[2]; YT28, 20 mg/mL ampicillin after adding 20 mM succinic acid, 4 hours
  survival rate: 0.79%
[3]; YT16, succinic acid added vs control without
  increase of proton motive force of the bacteria: 1.2 times
[3]; YT28, succinic acid added vs control without
  increase of proton motive force of the bacteria: 1.45 times
[4]
  clearance of clinical Escherichia coli on the biofilms, used alone: cannot clear
[5]; i.p. 590 mg/kg succinic acid + ampicillin (2000 or 500 mg/kg) twice a day for 3 days vs ampicillin group, 1st of the 9 strains (YT3 by order of b93)
  bactericidal efficiency increase on catheter biofilm: 14 times
[5]; i.p. 590 mg/kg succinic acid + ampicillin twice a day for 3 days vs ampicillin group, 2nd of the 9 strains (YT11 by order of b93)
  bactericidal efficiency increase on catheter biofilm: 5 times
[5]; i.p. 590 mg/kg succinic acid + ampicillin twice a day for 3 days vs ampicillin group, 3rd of the 9 strains (YT12 by order of b93)
  bactericidal efficiency increase on catheter biofilm: 53 times
[5]; i.p. 590 mg/kg succinic acid + ampicillin twice a day for 3 days vs ampicillin group, 4th of the 9 strains (YT16 by order of b93)
  bactericidal efficiency increase on catheter biofilm: 30 times
[5]; i.p. 590 mg/kg succinic acid + ampicillin twice a day for 3 days vs ampicillin group, 5th of the 9 strains (YT17 by order of b93)
  bactericidal efficiency increase on catheter biofilm: 5 times
[5]; i.p. 590 mg/kg succinic acid + ampicillin twice a day for 3 days vs ampicillin group, 6th of the 9 strains (YT21 by order of b93)
  bactericidal efficiency increase on catheter biofilm: 9 times
[5]; i.p. 590 mg/kg succinic acid + ampicillin twice a day for 3 days vs ampicillin group, 7th of the 9 strains (YT22 by order of b93)
  bactericidal efficiency increase on catheter biofilm: 38 times
[5]; i.p. 590 mg/kg succinic acid + ampicillin twice a day for 3 days vs ampicillin group, 8th of the 9 strains (YT23 by order of b93)
  bactericidal efficiency increase on catheter biofilm: 17 times
[5]; i.p. 590 mg/kg succinic acid + ampicillin twice a day for 3 days vs ampicillin group, 9th of the 9 strains (YT28 by order of b93)
  bactericidal efficiency increase on catheter biofilm: 53 times
